Measured values: ChEMBL document CHEMBL1158475, “Identification of novel falcipain-2 inhibitors as potential antimalarial agents through structure-based virtual screening” (J Med Chem, 2009)
Active and inactive are the calls of the source. The calls are words filed in the database; no cut-off is given here.

Key:
[1] = Inhibition of Plasmodium falciparum recombinant falcipain-2 by microtiter plate spectrofluorimetry
Plasmodium falciparum [2] = assay: Inhibition of Plasmodium falciparum recombinant falcipain-2 at 10 uM by microtiter plate spectrofluorimetry
Plasmodium falciparum [3] = assay: Binding affinity to Plasmodium falciparum recombinant falcipain-2 by isothermal titration calorimetry
Plasmodium falciparum [4] = assay: Inhibition of Plasmodium falciparum recombinant falcipain-2 at 10 uM after dialysis in refolding buffer for 8 hrs by SDS-PAGE
Plasmodium falciparum [5] = assay: Induction of Plasmodium falciparum recombinant falcipain-2 aggregation by FPLC gel filtration chromatography
Plasmodium falciparum [6] = assay: Induction of Plasmodium falciparum recombinant falcipain-2 aggregation by pseudonative gel analysis

Row | Compound | IC50 [1] | inhibition (Plasmodium falciparum [2]) | Activity (Plasmodium falciparum [3]) | Activity (Plasmodium falciparum [4]) | Activity (Plasmodium falciparum [5]) | Activity (Plasmodium falciparum [6])
1 | O=C(COC(=O)c1ccc(S(=O)(=O)c2cccc(S(=O)(=O)N3CCOCC3)c2)cc1)c1ccccc1 | 20 µM | 36.9% |  |  |  | 
2 | O=C(COc1ccc2ccccc2c1)NCC(=O)N/N=C/c1ccc(-c2ccc(Cl)c(Cl)c2)o1 | 13.2 µM | 48.5% |  |  |  | 
3 | CCOC(=O)c1ccc(NC(=O)CSc2nnc(-c3ccccc3Br)n2CC)cc1 | 17.1 µM | 38.3% |  |  |  | 
4 | CCOC(=O)c1c(-c2ccc(-c3ccccc3)cc2)csc1NC(=O)CSc1nnc2sc3ccccc3n12 | 15 µM | 36.6% |  |  |  | 
5 | O=C(CN1C(=O)S/C(=C/c2ccc(-c3ccc(Cl)c(C(=O)O)c3)o2)C1=O)Nc1ccc2c(c1)OCO2 | 10.9 µM | 41.4% |  |  |  | 
6 | O=C(COc1cccc(Cl)c1)Nc1nc(-c2ccc(S(=O)(=O)N3CCOCC3)cc2)cs1 | 20 µM | 25.2% |  |  |  | 
7 | CC(Sc1nc(-c2ccccc2O)n[nH]1)C(=O)Nc1cccc(Cl)c1 (centres undefined) | 5.8 µM | 71.4% |  |  |  | 
8 | CCc1ccc(OCc2nnc(SCC(=O)Nc3ccc4ccccc4c3)o2)cc1 | > 50 µM | 21.9% |  |  |  | 
9 | CC(=O)c1ccc(-c2ccc(/C=N/Nc3nc(N4CCCCC4)nc(N4CCCCC4)n3)o2)cc1 | 20 µM | 27.9% |  |  |  | 
10 | COc1cc(NS(=O)(=O)c2ccc(NC(=O)c3cc(-c4cccc(C)c4)nc4ccccc34)cc2)ncn1 | 20 µM | 26.9% |  |  |  | 
11 | O=C(CSc1nnc(SCC(=O)Nc2ccc(Cl)cc2)s1)Nc1ccc(Cl)cc1 | 20 µM | 28.2% |  |  |  | 
12 | O=C(CCc1ccc(S(=O)(=O)NCCc2ccccc2)cc1)Nc1ccc2c(c1)OCCO2 | 54.2 µM | 20.3% |  |  |  | 
13 | CC(NC(=O)COc1ccc2ccccc2c1)C(=O)N/N=C/c1cccc(Cl)c1Cl (centres undefined) | > 50 µM | 25.1% |  |  |  | 
14 | COc1cccc(/C=N/NC(=O)c2ccn(Cc3ccc(Cl)cc3Cl)n2)c1O | > 50 µM | 21.8% |  |  |  | 
15 | Cc1cccc(OCC(=O)Nc2nc(-c3ccc(S(=O)(=O)N4CCOCC4)cc3)cs2)c1 | > 50 µM | 21.3% |  |  |  | 
16 | O=C(NC(Cc1c[nH]c2ccccc12)C(=O)NCc1ccccc1)Oc1ccccc1 (centres undefined) | 29.7 µM | 29.4% |  |  |  | 
17 | O=C(Cn1nnc(-c2ccccc2)n1)N/N=C/c1ccccc1OCc1ccc(Cl)cc1Cl | 20 µM | 28.9% |  |  |  | 
18 | Cc1c(Cl)cccc1-c1ccc(/C=N\Nc2nncn2/N=C/c2ccc(-c3cccc(Cl)c3C)o2)o1 | 6.4 µM | 56.5% |  |  |  | 
19 | CC(=O)c1ccc(NC(=O)CSc2nnc(COc3cccc4cccnc34)n2-c2ccccc2)cc1 | > 50 µM | 21.9% |  |  |  | 
20 | CC(C)C[C@H](NC(=O)[C@H]1O[C@@H]1C(=O)O)C(=O)NCCCCN=C(N)N [E-64] | 0.017 µM | 97.4% | Active | Active |  | 
21 | CCn1c(CNC(=O)Cc2ccc(OC)cc2)nnc1SCC(=O)Nc1ccc(Cl)c(Cl)c1 | 20 µM | 25.9% |  |  |  | 
22 | COc1cccc(OCC(=O)NC(=S)Nc2cccc(-c3nc4ncccc4o3)c2C)c1 | > 50 µM | 20.2% |  |  |  | 
23 | COc1ccc(C(=O)NNC(=O)CSc2nnc(COc3ccc4ccccc4c3)n2C)cc1 | > 50 µM | 20.8% |  |  |  | 
24 | C=CCn1c(SCC(=O)Nc2sc3c(c2C(N)=O)CCC3)nc2scc(-c3ccccc3)c2c1=O | 2.4 µM | 53.1% | inactive | inactive | inactive | inactive
25 | O=C(Cc1nnc(NC(=O)c2ccc(Br)cc2)s1)NNC(=O)c1ccc(Br)cc1 | > 50 µM | 20.2% |  |  |  | 
26 | Cc1cc(C)nc(NS(=O)(=O)c2ccc(NC(=S)NC(=O)c3cccnc3)cc2)n1 | > 50 µM | 20.2% |  |  |  | 
27 | Nc1nnc(SCC(=O)Nc2ccc3nc(SCc4cccc5ccccc45)sc3c2)s1 | 15 µM | 44% |  |  |  | 
28 | Cc1ccc(NC(=O)CN2C(=O)S/C(=C/c3ccc(-c4ccc(Cl)c(C(=O)O)c4)o3)C2=O)cc1 | 20 µM | 29% |  |  |  | 
29 | CC(=O)c1ccc(NC(=O)CSc2nnc(COc3ccc4ccccc4c3)n2-c2ccccc2)cc1 | > 50 µM | 23.4% |  |  |  | 
